Test results as given in patent publication US7863329B2 (Eli Lilly and Company, priority 2005, dated 2011).

Target: T1, cloned human glucagon receptor (Homo sapiens, UniProt P47871)
T1 construct: expressed in transfected cells; host or cells: 293 HEK cells, hygromycin-selected; crude plasma membranes
Experiment: Glucagon Receptor (hGlucR) Binding Assay (SPA, I-125 glucagon competition)
From the text: The second supernate is combined with the first supernate.
The specific activity is 2200 Ci/mmol.

T1 sequence (P47871 26-477): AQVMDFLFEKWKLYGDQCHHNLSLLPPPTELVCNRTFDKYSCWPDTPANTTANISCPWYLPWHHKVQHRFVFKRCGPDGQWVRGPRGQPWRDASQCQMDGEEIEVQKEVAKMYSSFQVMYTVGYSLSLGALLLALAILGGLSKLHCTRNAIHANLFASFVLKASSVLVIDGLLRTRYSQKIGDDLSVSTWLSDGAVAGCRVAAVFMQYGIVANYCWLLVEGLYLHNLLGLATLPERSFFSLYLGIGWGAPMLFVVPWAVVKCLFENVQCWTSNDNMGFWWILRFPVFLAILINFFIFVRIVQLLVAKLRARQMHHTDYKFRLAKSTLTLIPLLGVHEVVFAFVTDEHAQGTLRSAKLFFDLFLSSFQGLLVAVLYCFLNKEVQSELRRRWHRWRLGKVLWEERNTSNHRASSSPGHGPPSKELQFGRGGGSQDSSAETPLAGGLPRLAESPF

Ki	SMILES
266 nM	CC(C)CC(Cc1ccc(-c2ccc(C(C)(C)C)cc2)cc1)c1ccc(C(=O)NCCC(=O)O)cc1 (centres unmarked)
232 nM	CCCCCCC(Cc1ccc(-c2ccc(C(F)(F)F)cc2)cc1)c1ccc(C(=O)NCCC(=O)O)cc1 (centres unmarked)
